Test results reported in patent US9730940B2, “Purine inhibitors of human phosphatidylinositol 3-kinase delta” (priority 2012, dated 2017).

Target: PI3K-alpha (Homo sapiens (Human), UniProt P42336)
Experiment: HTRF PI3K biochemical assay, alpha isoform
Conditions: ratio PI3K-alpha IC50 value/PI3K-delta IC50 value
From the text: HTRF PI3K Biochemical Assay to Measure Intrinsic Potency of Compound Inhibitors
The PI3-Kinase biochemical assays were developed to measure the intrinsic potency and compound dependent inhibition of the alpha, beta, delta, and gamma PI3K isoform enzymes. This assay was developed and further optimized from a kit produced by Upstate (Millipore catalog #33-047) and has been configured for HTS and SAR screening. Briefly, this procedure exploits the exquisite specificity and high affinity binding of enzyme reaction substrate phosphatidyl(3,4,5)triphosphate (PIP3) to the GRP1 pleckstrin homology (PH) domain to generate the signal. In the absence of PIP3, an HTRF (Homogeneous Time-Resolved Fluorescence energy transfer) complex is formed consisting of europium (Eu)-labeled anti-GST, GST tagged GRP1-PH domain, biotin-PIP3 and streptavidin conjugated APC. The native PIP3 produced by PI3-Kinase activity disrupts in a competitive manner the biotin-PIP3 from the PH domain, resulting in the loss of energy transfer (HTRF complex) and a decrease in the signal. The format of this assay is the same for all 4 isoforms of PI3K; the differences lie in the concentration of enzyme used to achieve robust assay window. The alpha, beta, and delta assays are run at 0.5, 1, and 0.3 nM enzymes and the gamma assay is run at 5 nM enzyme. The ATP concentration is 100 uM in the alpha, beta, and delta assays and 50 uM ATP in the gamma assay. All reactions are run at 5 uM PIP2.
Compounds are serially diluted (3-fold in 100% DMSO) across a 384-well polypropylene source plated from column 3 to column 12 and column 13 to column 22, to yield 10 concentration dose response for each test compound. Columns 1, 2, 23 and 24 contain either only DMSO or pharmacological known control inhibitor.
The PI3-Kinase biochemical assay was optimized using the HTRF kit provided by Upstate (Millipore). The assay kit contains six reagents: 1) 4× Reaction Buffer; 2) native PIP2 (substrate); 3) Stop (EDTA); 4) Detection Mix A (Streptavidin-APC); 5) Detection Mix B (Eu-labeled Anti-GST plus GST-tagged PH-domain); 6) Detection Mix C.
PI3Kinase Reaction Buffer is prepared by dilution the stock 1:4 with de-ionized water. […] Enzyme addition and compound pre-incubation are initiated by the addition of 1.25 ul of PI3K (at twice its final concentration) in the 1× reaction buffer to all wells using a BioRaptor. Plates are incubated at room temperature for 15 minutes. Reactions are initiated by addition of 1.25 ul of 2× substrate solution (PIP2 and ATP in 1× reaction buffer) using BioRaptor. Plates are incubated in humidified chamber at room temperature for one hour. Reactions are quenched by addition of 0.625 uL of stop solution to all wells using the BioRaptor. The quenched reactions are then processed to detect product formation by adding 0.625 uL of Detection Solution to all wells using the BioRaptor (Detection mix C, Detection Mix A, and Detection Mix B combined together in an 18:1:1 ratio prepared 2 hours prior to use).
The loss of the HTRF signal is due to the displacement of biotinylated-PIP3 from the PH domain by the PI3K-dependent conversion of PIP2 to PIP3. This loss of signal is nonlinear with respect to both increasing product and time. This non-linear detection will impact accuracy of IC50 calculations; therefore, there is a need for a correction factor to obtain more accurate IC50 values. This correction is derived from a PIP3 standard curve run in a separate assay plate. All data were calculated using the ratio of acceptor (APC) to donor (Europium) fluorescence in each well of the assay plate. […] An IC50 was then calculated fitting the % inhibition data to the equation: % inhibition=min+(Max−min)/1+([inhibitor]/IC50)^n) where min is the % inhibition […], max is the signal in DMSO control, and n is the Hill slope.

Sequence of PI3K-alpha (P42336 whole entry, looked up, canonical isoform): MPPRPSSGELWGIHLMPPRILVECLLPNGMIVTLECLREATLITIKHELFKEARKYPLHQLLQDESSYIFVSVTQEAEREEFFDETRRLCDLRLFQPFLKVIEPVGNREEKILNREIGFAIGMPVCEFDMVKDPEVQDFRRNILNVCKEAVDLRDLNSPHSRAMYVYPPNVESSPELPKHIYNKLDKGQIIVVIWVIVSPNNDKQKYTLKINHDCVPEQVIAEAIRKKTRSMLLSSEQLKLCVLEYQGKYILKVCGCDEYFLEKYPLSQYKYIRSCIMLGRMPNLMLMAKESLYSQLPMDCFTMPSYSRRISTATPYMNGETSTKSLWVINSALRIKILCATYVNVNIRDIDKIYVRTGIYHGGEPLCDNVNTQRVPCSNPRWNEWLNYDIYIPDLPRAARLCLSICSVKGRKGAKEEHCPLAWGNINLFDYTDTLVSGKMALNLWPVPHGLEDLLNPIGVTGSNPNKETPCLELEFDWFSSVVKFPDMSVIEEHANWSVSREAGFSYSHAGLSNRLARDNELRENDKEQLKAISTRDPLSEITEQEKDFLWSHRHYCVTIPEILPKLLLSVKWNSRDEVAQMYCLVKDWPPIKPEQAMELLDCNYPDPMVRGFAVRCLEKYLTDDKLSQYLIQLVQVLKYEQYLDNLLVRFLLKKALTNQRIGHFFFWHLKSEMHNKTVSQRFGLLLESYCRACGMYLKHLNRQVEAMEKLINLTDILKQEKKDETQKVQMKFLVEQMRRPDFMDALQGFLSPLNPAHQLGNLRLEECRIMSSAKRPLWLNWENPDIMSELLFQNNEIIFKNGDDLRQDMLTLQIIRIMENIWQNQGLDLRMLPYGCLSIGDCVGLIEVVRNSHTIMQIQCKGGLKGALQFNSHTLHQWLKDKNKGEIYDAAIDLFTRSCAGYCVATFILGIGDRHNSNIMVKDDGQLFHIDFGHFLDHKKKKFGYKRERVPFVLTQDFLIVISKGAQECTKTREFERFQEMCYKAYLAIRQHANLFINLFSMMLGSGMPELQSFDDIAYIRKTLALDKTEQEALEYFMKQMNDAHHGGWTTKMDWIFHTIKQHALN
Sequence of PI3K-alpha (P27986 whole entry partner, looked up, canonical isoform): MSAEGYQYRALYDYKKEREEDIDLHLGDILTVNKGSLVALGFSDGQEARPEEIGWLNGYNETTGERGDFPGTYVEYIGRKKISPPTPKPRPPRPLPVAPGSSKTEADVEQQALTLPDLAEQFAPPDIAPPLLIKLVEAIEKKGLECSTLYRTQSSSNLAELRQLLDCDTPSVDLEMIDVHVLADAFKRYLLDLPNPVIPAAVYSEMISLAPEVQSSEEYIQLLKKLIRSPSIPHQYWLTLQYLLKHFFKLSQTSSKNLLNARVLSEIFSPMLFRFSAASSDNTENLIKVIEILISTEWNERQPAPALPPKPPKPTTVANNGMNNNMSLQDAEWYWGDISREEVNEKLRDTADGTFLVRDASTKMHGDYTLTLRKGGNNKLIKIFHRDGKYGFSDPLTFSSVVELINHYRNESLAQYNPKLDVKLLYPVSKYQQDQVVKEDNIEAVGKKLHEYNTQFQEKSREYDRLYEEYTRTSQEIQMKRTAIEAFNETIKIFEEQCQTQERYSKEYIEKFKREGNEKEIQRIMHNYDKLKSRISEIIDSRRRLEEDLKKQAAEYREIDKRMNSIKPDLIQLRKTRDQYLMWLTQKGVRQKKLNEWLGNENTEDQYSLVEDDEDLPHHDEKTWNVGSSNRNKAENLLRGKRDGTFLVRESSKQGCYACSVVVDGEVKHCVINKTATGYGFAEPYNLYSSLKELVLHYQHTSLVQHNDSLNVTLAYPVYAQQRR

Row | Compound | Relative Selectivity versus PI3Kalpha
1 | CCn1c(-c2cnc(C)nc2)nc2c(OC3CN(C(=O)C4CC4)CC3O)ncnc21 (single isomer, unassigned) [Compound 2-100, [(3R,4R) or (3S,4S)]-trans-1-(cyclopropylcarbonyl)-4-{[9-ethyl-8-(2-methylpyrimidin-5-yl)-9H-purin-6-yl]oxy}pyrrolidin-3-ol] | >10
2 | CCn1c(-c2cnc(C)nc2)nc2c(OC3CN(C(=O)C4CC4)CC3OC)ncnc21 (single isomer, unassigned) [Compound 2-115] | >10
3 | CCn1c(-c2cnc(C)nc2)nc2c(O[C@H]3CCN(C(=O)C4CCC4C)C3)ncnc21 (single isomer, unassigned) [Compound 2-117, 9-ethyl-6-({(3S)-1-[([(1R,2S) or (1R,2R) or (1S,2R) or (1S,2S)]-methylcyclobutyl)carbonyl]pyrrolidin-3-yl}oxy)-8-(2-methylpyrimidin-5-yl)-9H-purine] | >10
4 | CCn1c(-c2cnc(C)nc2)nc2c(O[C@H]3CCN(C(=O)C4CCC4C)C3)ncnc21 (single isomer, unassigned) [Compound 2-118, 9-ethyl-6-({(3S)-1-[([(1R,2S) or (1R,2R) or (1S,2R) or (1S,2S)]-methylcyclobutyl)carbonyl]pyrrolidin-3-yl}oxy)-8-(2-methylpyrimidin-5-yl)-9H-purine] | >10
5 | CCn1c(-c2cnc(C)nc2)nc2c(O[C@H]3CCN(C(=O)C4CCC4C)C3)ncnc21 (single isomer, unassigned) [Compound 2-119, 9-ethyl-6-({(3S)-1-[([(1R,2S) or (1R,2R) or (1S,2R) or (1S,2S)]-methy]cyclobutyl)carbonyl]pyrrolidin-3-yl}oxy)-8-(2-methylpyrimidin-5-yl)-9H-purine] | >10
6 | CCn1c(-c2cnc(C)nc2)nc2c(O[C@H]3CCN(C(=O)C4CCC4C)C3)ncnc21 (single isomer, unassigned) [Compound 2-120, 9-ethyl-6-({(3S)-1-[([(1R,2S) or (1R,2R) or (1S,2R) or (1S,2S)]-methylcyclobutyl)carbonyl]pyrrolidin-3-yl}oxy)-8-(2-methylpyrimidin-5-yl)-9H-purine] | >10
7 | CCn1c(-c2cnc(C)nc2)nc2c(O[C@H]3CCN(C(=O)C4CC4C(F)F)C3)ncnc21 (single isomer, unassigned) [Compound 2-124, 6-{[(3S)-{(1S,2S)- or (1R,2R)-[2-(difluoromethyl)cyclopropyl]carbonyl}pyrrolidin-3-yl]oxy}-9-ethyl-8-(2-methylpyrimidin-5-yl)-9H-purine] | >10
8 | CCn1c(-c2cnc(C)nc2)nc2c(O[C@H]3CCN(C(=O)C4CC4C(F)F)C3)ncnc21 (single isomer, unassigned) [Compound 2-125, 6-{[(3S)-1-{(1S,2S)- or (1R,2R)-[2-(difluoromethyl)cyclopropyl]carbonyl}pyrrolidin-3-yl]oxy}-9-ethyl-8-(2-methylpyrimidin-5-yl)-9H-purine] | >10
9 | CCn1c(-c2cnc(C)nc2)nc2c(O[C@H]3CCN(C(=O)C4CC4(C)C)C3)ncnc21 (single isomer, unassigned) [Compound 2-126, 6-({(3S)-1-[S- or R-(2,2-dimethylcyclopropyl)carbonyl]pyrrolidin-3-yl}oxy)-9-ethyl-8-(2-methylpyrimidin-5-yl)-9H-purine] | >10
10 | CCn1c(-c2cnc(C)nc2)nc2c(O[C@H]3CCN(C(=O)C4CC4(C)C)C3)ncnc21 (single isomer, unassigned) [Compound 2-127, 6-({(3S)-1-[S- or R-(2,2-dimethylcyclopropyl)carbonyl]pyrrolidin-3-yl}oxy)-9-ethyl-8-(2-methylpyrimidin-5-yl)-9H-purine] | >10
11 | CCn1c(-c2cnc(C)nc2)nc2c(O[C@H]3CCN(C(=O)C4CC4CO)C3)ncnc21 (single isomer, unassigned) [Compound 2-130, (1S,2S)- or (1R,2R)-{[(3S)-3-{[9-ethyl-8-(2-methylpyrimidin-5-yl)-9H-purin-6-yl]oxy}pyrrolidin-1-yl]carbonyl}cyclopropyl)methanol] | >10
12 | CCn1c(-c2cnc(C)nc2)nc2c(O[C@H]3CCN(C(=O)C4CC4CO)C3)ncnc21 (single isomer, unassigned) [Compound 2-131, (1S,2S)- or (1R,2R)-{[(3S)-3-{[9-ethyl-8-(2-methylpyrimidin-5-yl)-9H-purin-6-yl]oxy}pyrrolidin-1-yl]carbonyl}cyclopropyl)methanol] | >10
13 | CCn1c(-c2cnc(C)nc2)nc2c(O[C@H]3CCN(C(=O)C4CC4CF)C3)ncnc21 (single isomer, unassigned) [Compound 2-132, 9-ethyl-6-{[(3S)-1-{[(1S,2S)- or (1R,2R)-2-(fluoromethyl)cyclopropyl]carbonyl}pyrrolidin-3-yl]oxy}-8-(2-methylpyrimidin-5-yl)-9H-purine] | >10
14 | CCn1c(-c2cnc(C)nc2)nc2c(O[C@H]3CCN(C(=O)C4CC4CF)C3)ncnc21 (single isomer, unassigned) [Compound 2-133, 9-ethyl-6-{[(3S)-1-{[(1S,2S)- or (1R,2R)-2-(fluoromethyl)cyclopropyl]carbonyl}pyrrolidin-3-yl]oxy}-8-(2-methylpyrimidin-5-yl)-9H-purine] | >10
15 | CCn1c(-c2cnc(C)nc2)nc2c(O[C@H]3CCN(C(=O)C4CC4F)C3)ncnc21 (single isomer, unassigned) [Compound 2-134, 9-ethyl-6-(((3S)-1-[((1R,2R)- or (1S,2S)-2-fluorocyclopropyl)carbonyl]pyrrolidin-3-yl}oxy)-8-(2-methylpyrimidin-5-yl)-9H-purine] | >10
16 | CCn1c(-c2cnc(C)nc2)nc2c(O[C@H]3CCN(C(=O)C4CC4F)C3)ncnc21 (single isomer, unassigned) [Compound 2-135, 9-ethyl-6-({(3S)-1-[((1R,2R)- or (1S,2S)-2-fluorocyclopropyl)carbonyl]pyrrolidin-3-yl}oxy)-8-(2-methylpyrimidin-5-yl)-9H-purine] | >10
17 | CCn1c(-c2cnc(C)nc2)nc2c(OC3CN(C(=O)C4CC4)CC3F)ncnc21 (single isomer, unassigned) [Compound 2-137, 6-{[1-(cyclopropylcarbonyl)-(3S,4S)- or (3R,4R)-4-fluoropyrrolidin-3-yl]oxy}-9-ethyl-8-(2-methylpyrimidin-5-yl)-9H-purine] | >10
18 | CCn1c(-c2cnc(C)nc2)nc2c(OC3CN(C(=O)C4CC4)CC3F)ncnc21 (single isomer, unassigned) [Compound 2-138, 6-{[1-(cyclopropylcarbonyl)-(3S,4S)- or (3R,4R)-4-fluoropyrrolidin-3-yl]oxy}-9-ethyl-8-(2-methylpyrimidin-5-yl)-9H-purine] | >10
19 | CCC1CN(C(=O)C2CC2)C[C@H]1Oc1ncnc2c1nc(-c1cnc(C)nc1)n2CC (single isomer, unassigned) [Compound 3-47, [3R,4S or 3S,4R]-6-{[1-(cyclopropylcarbonyl)-4-ethylpyrrolidin-3-yl]oxy}-9-ethyl-8-(2-methylpyrimidin-5-yl)-9H-purine] | >10
20 | CCn1c(-c2cnc(C)nc2)nc2c(OC3CN(C(=O)C4CC4)CC3C)ncnc21 (single isomer, unassigned) [Compound 3-65, [(3S,4R) or (3R,4S)]6-{[1-(cyclopropylcarbonyl)-4-methylpyrrolidin-3-yl]oxy}-9-ethyl-8-(2-methylpyrimidin-5-yl)-9H-purine] | >10
